A23, Maximum absorption wavelength and Residual rate data for nine compounds are collected here from patent EP4692072A1, “PHOTOCHROMIC COMPOUND, PROPARGYL ALCOHOL COMPOUND, CURABLE COMPOSITION, OPTICAL ARTICLE, LENS, AND SPECTACLES” (TOKUYAMA CORPORATION, priority 2023, dated 2024).

Holding throughout (format): physicochemical
Series [1] in a line: Photochromic properties of photochromic cured product prepared by kneading method. The conditions noted are these: 0.106 mmol per 100 g monomer; for A23: 1 mm cured product, 23°C color optical density ε(300)-ε(0); for Maximum absorption wavelength: 1 mm thiourethane cured product, after color development. As for the experimental part:
(§1) • [1] Maximum Absorption Wavelength (λmax): The maximum absorption wavelength after color development, measured using a spectrophotometer (instantaneous multichannel photodetector MCPD3000) manufactured by Otsuka Electronics Co., Ltd. was used as an indicator for the color tone during the color development. • [2] 23°C Color Optical Density (A23): A difference between an absorbancy measured after light irradiation at 23°C for 300 seconds {ε(300)} and an absorbancy without light irradiation ε(0) at the maximum absorption wavelength was used as an indicator for the color optical density. […] 23°C color fading half-life [τ1/2 (sec.)]: A time required for the absorbancy of the sample at the maximum absorption wavelength to decrease to 1/2 of {ε(300)-ε(0)} when the light irradiation was terminated after the light irradiation at 23°C for 300 seconds, was used as an indicator for the color fading speed. The shorter this time, the higher the color fading speed. • [4] Residual rate (A120/A0×100): The obtained photochromic plastic lens was subjected to accelerated deterioration using a xenon weather meter X25 manufactured by Suga Test Instruments Co., Ltd. for 120 hours. Subsequently, the color optical density was evaluated before and after the test, then a color optical density before the test (A0) and a color optical density after the test (A120) were measured, and a ratio (A120/A0) was defined as a residual rate. The residual rate was used as an indicator for a color developing durability. The higher the residual rate, the higher the color developing durability. The results of Examples 26, 50, and Comparative Examples 1 to 8 are summarized in Table 1, and the results of Examples 27 to 49 are summarized in Tables 2 and 3.
(§2) First, the photochromic compound obtained in Example 1, additives, and a polymerizable compound were mixed to obtain a curable composition.
(§3) As the polymerizable compound, a combination of the following polymerizable monomers was used. • 1,3-bis(isocyanatomethyl)cyclohexane: 36.7 parts by mass Pentaerythritol tetrakis(3-mercaptopropionate): 39.4 parts by mass • Polyoxyethylene polyoxypropylene lauryl ether (Wonder Surf 140 manufactured by Aoki Oil Industrial Co., Ltd.): 17.4 parts by mass • 1-decanethiol: 2.8 parts by mass • RX-1 adjusted according to the method described in Patent Document 13: 3.8 parts by mass
(§4) Note that the photochromic compound was added to the curable composition so that the amount of the photochromic compound was 0.106 mmol based on 100 g of the total amount of the polymerizable monomer. The following additives were used: Dimethyltin dichloride • : 0.05 part by mass • Irganox 245: 0.1 part by mass • 2-ethylhexyl 4-methoxycinnamate: 0.6 part by mass
(§5) The prepared curable composition was thoroughly defoamed, then injected into a glass mold having a 1 mm gap, and polymerized by cast polymerization. The polymerization was carried out in an air furnace while gradually raising the temperature from 27°C to 120°C over 18 hours. After the polymerization, the cured product was removed from the glass mold to obtain a photochromic cured product having a thickness of 1 mm. The obtained photochromic cured product was evaluated in the same manner as in Example 26.
(§6) (Examples 85 to 99, and Comparative Example 14 to 18) Photochromic cured products were prepared using photochromic compounds presented in Tables 6 and 7 in the same manner as in Example 84. The results of Examples 84 and 85 and Comparative Examples 14 to 18 are summarized in Table 6, and the results of Examples 86 to 99 are summarized in Table 7.

Series [2] can be described thus: Accelerated deterioration (xenon weather meter X25, 120 hours) of photochromic laminate prepared by coating method. The conditions noted are these: 0.25 mmol per 100 g monomers, A120/A0×100 after 120 hours xenon weather meter. In short, it runs like this: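 Photochromic compound at 0.25 mmol per 100 g of methacrylate monomers, spin-coated as a 40 µm layer on a primed 1.60-index thiourethane lens, then light-cured and heated at 110°C for 1 h. Color optical density at λmax (23°C, 300 s irradiation) measured before (A0) and after 120 h xenon exposure (A120). Residual rate = A120/A0×100.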

Series [3] is described as follows: Accelerated deterioration (xenon weather meter X25, 120 hours) of photochromic cured product prepared by kneading method. As to conditions: 1 mm cured product, 0.106 mmol per 100 g monomer, A120/A0×100 after 120 hours xenon weather meter. The protocol:
as §1, §2, §3, §4, §5, §6

Take `CCCCC1(CCCC)c2cc(-c3ccc(OC(C)C)cc3)ccc2-c2c1c1c(c3cc(OC)ccc23)OC(c2ccc(N(C)c3ccccc3)cc2)(c2ccc(OC)c(F)c2)C=C1` (stereo not shown) [Example 21]: the A23 in series [1] was 0.62 -; in series [1] (listed as Formula (83)) it was 1.25 -. Moreover, the Maximum absorption wavelength came to 490 nm in series [1] and 616 nm in series [1] (listed as Formula (83)). In addition, the Residual rate in series [2] is on record as 60%; in series [3], 68%.
For the compound `CCCC1(CCC)c2cc(OC(F)(F)F)ccc2-c2c1c1c(c3cc(OC)c(Sc4c(C)cccc4C)cc23)OC(c2ccc(N(C)c3ccccc3)cc2)(c2ccc(OC)c(OC)c2)C=C1` (stereo not shown) [Example 57], the A23 in series [1] is 0.86 -; in series [1] (listed as Formula (110)) it was 0.88 -. Also, the Maximum absorption wavelength in series [1] worked out at 496 nm; in series [1] (listed as Formula (110)), 625 nm. Besides, the Residual rate in series [2] is listed as 65%; in series [3] it was 72%.
As to `CCCc1ccc(C2(c3ccc(N(C)c4ccccc4)cc3)C=Cc3c4c(c5cc(Sc6c(C)cccc6C)c(OC)cc5c3O2)-c2ccccc2C42CC(C)(C)CC(C)(C)C2)cc1` (stereo not shown) [Example 5], the A23 is 0.56 - in series [1] and 0.69 - in series [1] (listed as Formula (51)). Moreover, the values for the Maximum absorption wavelength in series [1] and in series [1] (listed as Formula (51)) were 511 nm and 598 nm, respectively. The Residual rate in series [2] is given as 68%; in series [3], 75%.
With `COCCOCCC1(CCOCCOC)c2cc(C)ccc2-c2c1c1c(c3cc(C)ccc23)OC(c2ccc(N(C)c3ccc(F)cc3)cc2)(c2ccc(OC)c(OC)c2)C=C1` (stereo not shown) [Example 8], the results for the A23 in series [1] and in series [1] (listed as Formula (57)) were 0.51 - and 1.24 -, respectively. The Maximum absorption wavelength is 476 nm in series [1] and 604 nm in series [1] (listed as Formula (57)). In addition, the Residual rate is 60% in series [2] and 68% in series [3].
As to `CCC1(CC)CCC2(CC1)c1cc(OC(F)(F)F)ccc1-c1c2c2c(c3cc(OC)ccc13)OC(c1ccc(N(C)c3ccccc3)cc1)(c1ccc(OC)c(C)c1)C=C2` (stereo not shown) [Example 16], the A23 in series [1] is recorded as 0.47 -; in series [1] (listed as Formula (77)) it was 0.86 -. Moreover, the Maximum absorption wavelength was determined as 475 nm in series [1] and 593 nm in series [1] (listed as Formula (77)). The values for the Residual rate in series [2] and in series [3] were 57% and 64%, respectively.
For `COCCN(c1ccccc1)c1ccc(C2(c3ccc4c(c3)OCCO4)C=Cc3c4c(c5cc6c(cc5c3O2)SC(C)(C)O6)-c2ccccc2C42CCC3(CCCCC3)CC2)cc1` (stereo not shown) [Example 14], the values for the A23 in series [1] and in series [1] (listed as Formula (71)) were 0.59 - and 0.65 -, respectively. For the same compound, the figures for the Maximum absorption wavelength in series [1] and in series [1] (listed as Formula (71)) were 496 nm and 590 nm, respectively. The Residual rate in series [2] was 63%; in series [3] it was 71%; in series [3] (listed as Formula (71)), 70%.
As to `COCCCCC1(CCCCOC)c2ccccc2-c2c1c1c(c3cc(-c4ccc(OC)cc4OC)c(OC)cc23)OC(c2ccc(N(C)c3ccccc3)cc2)(c2ccc3c(c2)CCO3)C=C1` (stereo not shown) [Example 62], the A23 in series [1] was 1.02 -; in series [1] (listed as Formula (124)) it was 1.11 -. Further, the Maximum absorption wavelength in series [1] is 479 nm; in series [1] (listed as Formula (124)), 594 nm. Also, the figures for the Residual rate in series [2] and in series [3] were 61% and 67%, respectively.
Take `COCCOCCOCCOCCC1(CCOCCOCCOCCOC)c2cc(C(F)(F)F)ccc2-c2c1c1c(c3cc(OC)c(OC)cc23)OC(c2ccc(OC)cc2)(c2ccc(N(C)c3ccccc3)cc2)C=C1` (stereo not shown) [Example 51]: the A23 is recorded as 0.46 - in series [1] and 0.45 - in series [1] (listed as Formula (89)). In addition, the figures for the Maximum absorption wavelength in series [1] and in series [1] (listed as Formula (89)) were 486 nm and 612 nm, respectively. Besides, the values for the Residual rate in series [2] and in series [3] were 60% and 68%, respectively.
`CCCC1(CCC)c2ccccc2-c2c1c1c(c3cc(OC)c(-c4ccc(N(C)c5ccccc5)cc4)cc23)OC(c2ccc(C)cc2)(c2ccc(N(C)c3ccccc3)cc2)C=C1` (stereo not shown) [Example 24]: the A23 in series [1] was 1.32 -; in series [1] (listed as Formula (86)) it was 1.31 -. Further, the Maximum absorption wavelength in series [1] was 505 nm; in series [1] (listed as Formula (86)) it was 607 nm. Moreover, the figures for the Residual rate in series [2] and in series [3] were 62% and 65%, respectively.
